# US5252495A, “Immunoassay for physostigmine” (priority 1992, dated 1993)
# Like-named read-outs stand apart in the source and are kept apart here.
# Key:
# [1] = Stability of physostigmine in rat plasma; type: in vitro ADME; details: for Amount Recovered: rat plasma
# Description: To show the stability of physostigmine in biological fluids, physostigmine was added to 2 portions of rat plasma. One half of the plasma was kept at room temperature and the other was kept at 4° C. Aliquots which originally contained 3.6 ng of physostigmine were assayed at various times. […] Since the samples were cooled and processed at 4° C., corrections for loss of physostigmine were unnecessary.
# [2] = Physostigmine pharmacokinetics and tissue concentrations in rats after intramuscular administration; type: in vivo, Male Sprague-Dawley rats; details: 0.3 mg/kg intramuscular; for concentration at 0.5 h: 30 min; for concentration at 0.75 h: 45 min; for concentration at 1 h: 60 min; for concentration at 1.5 h: 90 min; for concentration at 2 h: 120 min
# Description: To study the pharmakinetics of physostigmine and validate the RIA and the antibody specificity of the present invention, rat studies were conducted. Male Sprague-Dawley rats weighing approximately 500 grams were housed two per cage at 23° C. with a twelve hour on-off light cycle. The animals were given food and water ad libitum. After sixty days, food was withheld for twelve hours. Physostigmine, comprised of a physostigmine base dissolved in a small volume of dilute hydrochloric acid and then diluted with phosphate buffered saline, with the pH of the solution adjusted to 6.0 was administered (0.3 mg. of the physostigmine solution/Kg) intramuscularly to the rats. Groups of three animals were sacrificed by using inhalation anesthetic, Fluothane (0.01% thymol, w/w; and 0.00025% ammonia, w/w) Ayerst Laboratories, New York, […] Blood, collected via heart puncture, and tissue samples were taken. Brain, fat, heart, muscle and spleen were removed and frozen on dry ice immediately. On the date of analysis the plasma and tissue samples were thawed. The tissues were weighed and homogenized with an equal volume of cold solution of 10 mM EDTA, 150 mM NaCl and 0.5% triton X-100, pH 7.4. The suspension Was centrifuged at 15,000×g in a Sorvall RC-5B centrifuge (Dupont) for 30 min at 4° C. The supernatent was collected and the pellet was Washed and centrifuged. The supernatants were combined and filtered through 1 um pore size filters (RC 60, 9 mm diameter from Schleicher and Schuell Inc., Keene, N.H.) and 100 ul of the filtrate was injected into the HPLC column.
# The blood and tissue samples were used to determine the concentration of physostigmine as a function of time. FIG. 3 gives the physostigmine level in the plasma of three male rats for each time interval as determined by the RIA of the present invention, while Table 4 presents the concentration of physostigmine in various organs as a function of time.
# [3] = cited from earlier work
# [4] = cited from earlier work; remark: listed apart in the source
# [5] = particularly in plasma and blood; cited from earlier work
# [6] = rat, brain, im, read-out: Tissue concentration of physostigmine, Brain
# [7] = rat, fat, im, read-out: Tissue concentration of physostigmine, Fat
# [8] = rat, heart, im, read-out: Tissue concentration of physostigmine, Heart
# [9] = rat, muscle, im, read-out: Tissue concentration of physostigmine, Muscle
# [10] = rat, spleen, im, read-out: Tissue concentration of physostigmine, Spleen
smiles,measurement,setting,value
"CNC(=O)Oc1ccc2c(c1)[C@]1(C)CCN(C)[C@@H]1N2C [Physostigmine, physostigmine]",Amount Recovered,"[1]; 4° C., 0 min, originally 3.6 ng",3.6 ng
same,Amount Recovered,"[1]; 4° C., 15 min",3.4 ng
same,Amount Recovered,"[1]; 4° C., 30 min",3.6 ng
same,Amount Recovered,"[1]; 4° C., 1 hr",3.8 ng
same,Amount Recovered,"[1]; 4° C., 2 hr",3.6 ng
same,Amount Recovered,"[1]; 4° C., 3 hr",3.6 ng
same,Amount Recovered,"[1]; 4° C., 4 hr",3.6 ng
same,Amount Recovered,"[1]; 23° C., 0 min, originally 3.6 ng",3.6 ng
same,Amount Recovered,"[1]; 23° C., 15 min",3.3 ng
same,Amount Recovered,"[1]; 23° C., 30 min",3.1 ng
same,Amount Recovered,"[1]; 23° C., 1 hr",2.7 ng
same,Amount Recovered,"[1]; 23° C., 2 hr",2.8 ng
same,Amount Recovered,"[1]; 23° C., 3 hr",2.8 ng
same,Amount Recovered,"[1]; 23° C., 4 hr",2.8 ng
same,remaining at 3 h,"[1]; rat, plasma, kept at 4° C. for 3 hr, read-out: physostigmine recovered from plasma samples",> 95%
same,remaining at 0.25 h,"[1]; rat, plasma, processed within 15 min. at room temperature, read-out: physostigmine recovered from plasma samples",> 95%
same,"Tissue concentration of physostigmine, Brain",[2]; 180 min,0.00 ng/g
same,Tmax,"[2]; im, rat, spleen, read-out: time during which spleen levels continued to increase (converted)",20 min
same,estimated plasma half-life during the rapid decline phase,[2]; rat,approximately 15 min
same,time until present in all of the tissues studied,[2]; rat,≤ 2.5 min
same,tissue distribution,[2]; rat,rapidly distributed to central as well as peripheral tissues
same,tissues with highest tissue concentrations,[2]; rat,heart and spleen
same,concentration at 2.5 min,[2]; [6],331 ng/g
same,concentration at 5 min,[2]; [6],297 ng/g
same,concentration at 10 min,[2]; [6],292 ng/g
same,concentration at 20 min,[2]; [6],198 ng/g
same,concentration at 0.5 h,[2]; [6],173 ng/g
same,concentration at 0.75 h,[2]; [6],45.6 ng/g
same,concentration at 1 h,[2]; [6],15.7 ng/g
same,concentration at 1.5 h,[2]; [6],3.05 ng/g
same,concentration at 2 h,[2]; [6],0.53 ng/g
same,concentration at 2.5 min,[2]; [7],230 ng/g
same,concentration at 5 min,[2]; [7],533 ng/g
same,concentration at 10 min,[2]; [7],398 ng/g
same,concentration at 20 min,[2]; [7],360 ng/g
same,concentration at 0.5 h,[2]; [7],292 ng/g
same,concentration at 0.75 h,[2]; [7],95 ng/g
same,concentration at 1 h,[2]; [7],86.3 ng/g
same,concentration at 1.5 h,[2]; [7],80.5 ng/g
same,concentration at 2 h,[2]; [7],58.6 ng/g
same,concentration at 3 h,"[2]; rat, fat, im, 180 min, read-out: Tissue concentration of physostigmine, Fat",10.3 ng/g
same,concentration at 2.5 min,[2]; [8],332 ng/g
same,concentration at 5 min,[2]; [8],785 ng/g
same,concentration at 20 min,[2]; [8],371 ng/g
same,concentration at 0.5 h,[2]; [8],213 ng/g
same,concentration at 0.75 h,[2]; [8],79.2 ng/g
same,concentration at 1 h,[2]; [8],78.5 ng/g
same,concentration at 1.5 h,[2]; [8],66.9 ng/g
same,concentration at 2 h,[2]; [8],47.2 ng/g
same,concentration at 3 h,"[2]; rat, heart, im, 180 min, read-out: Tissue concentration of physostigmine, Heart",48.7 ng/g
same,concentration at 2.5 min,[2]; [9],321 ng/g
same,concentration at 5 min,[2]; [9],225 ng/g
same,concentration at 10 min,[2]; [9],540 ng/g
same,concentration at 20 min,[2]; [9],323 ng/g
same,concentration at 0.5 h,[2]; [9],243 ng/g
same,concentration at 0.75 h,[2]; [9],241 ng/g
same,concentration at 1 h,[2]; [9],86 ng/g
same,concentration at 1.5 h,[2]; [9],70 ng/g
same,concentration at 2 h,[2]; [9],35 ng/g
same,concentration at 3 h,"[2]; rat, muscle, im, 180 min, read-out: Tissue concentration of physostigmine, Muscle",37.5 ng/g
same,concentration at 2.5 min,[2]; [10],322 ng/g
same,concentration at 5 min,[2]; [10],627 ng/g
same,concentration at 10 min,[2]; [10],955 ng/g
same,concentration at 20 min,[2]; [10],986 ng/g
same,concentration at 0.5 h,[2]; [10],912 ng/g
same,concentration at 0.75 h,[2]; [10],835 ng/g
same,concentration at 1 h,[2]; [10],540 ng/g
same,concentration at 1.5 h,[2]; [10],358 ng/g
same,concentration at 2 h,[2]; [10],227 ng/g
same,concentration at 3 h,"[2]; rat, spleen, im, 180 min, read-out: Tissue concentration of physostigmine, Spleen",55.6 ng/g
same,lipid solubility,[3],high degree of lipid solubility
same,solubility in biological fluids,[3],soluble in biological fluids
same,adverse muscarinic effects,[4]; certain patients,"nausea, vomiting, diarrhea, miosis, excessive salivation and sweating, abdominal cramps, bradycardia, bronchial secretion and bronchospasm"
same,toxic level relative to therapeutic level,[4]; clinical use,toxic at levels very close to those which produce therapeutic results
same,effect of substantial over administration,[4]; overdose,cholinergic crisis leading to death
same,other side effects,[4]; thrombophlebitis if administered intravenously,"generalized weakness, muscle cramps, fasciculation, hypotension, and, if administered intraveneously, thrombophlebitis"
same,in vitro hydrolysis in biological solutions,[5],extensive in vitro hydrolysis
